Measurements taken from patent US20210002182A1, “NOVEL PHOSPHATIC FERTILIZERS BASED ON ALKANOLAMINE SALTS OF PHOSPHORIC ACID” (Yara UK Limited, priority 2017, published 2021).

What was measured:
[1] = 75 weight % phosphoric acid; cited from earlier work
radish test crop = assay: Glasshouse crop safety trial, foliar spraying; assay type: in vivo; conditions: foliar spraying at 5 leaf stage, 3.4 kg P2O5 per ha in 200 litres/ha water, assessed seven days after spraying
Procedure: Glasshouse trials were carried out in order to assess crop safety of the composition described above. The trials were carried out using a radish test crop grown in pots in a sand medium and fed via a nutrient solution. A randomised block design using 4 replicates was employed. The product was applied by foliar spraying at the 5 leaf growth stage using a rate equivalent to 10 kg/ha in 200 litres/ha water (equating to an input of 3.4 kg P2O5 per ha). […] The crop was assessed for symptoms of phytotoxicity seven days after spraying.

For O=P(O)(O)O [phosphoric acid], the Freezing point [1] is listed as −20 °C and the “Symptoms of phytotoxicity (crop damage)” value (radish test crop) is listed as “signs of crop damage (leaf burn)”.
